Assays:
Assay type in all cases: in vivo, SD rats
Conditions in all cases: Benzbromarone group 20 mg/kg
[1] = Right kidney weight of rats on day 35
Protocol: SD rats were stratified by weight using random number table method, and each layer was divided into a normal group (10 rats), a fructose modeling group (50 rats) and a purine modeling group (24 rats) using random number table method. Tap water was administered to the normal group; a 10% (w/v) fructose solution was administered to the fructose modeling group for modeling; and for the purine modeling group, tap water was administered for drinking, 500 mg/kg of hypoxanthine + 100 mg/kg of nicotinic acid was administered by gastric perfusion according to body weight once a day, and the volume of perfusion was 10 ml/kg. The food and water consumption of rats were recorded daily, the body weights were weighed every 7 days, and blood was taken by shearing the tail tip on the next day of weighing. […]
Every 7 days during the experiment, the body weights of the animals were weighed and recorded, blood was taken from the tail vein, and serum was separated by centrifugation. The uric acid (UA), urea nitrogen (BUN), creatinine (CRE), xanthine oxidase (XOD), adenosine deaminase (ADA) and guanine deaminase (GuDa) in serum were detected. On day 35 of the experiment, the 24-hour urine of the rats was collected, the urine volume was measured, the pH value was determined, and the urinary uric acid level, urinary creatinine level, and urinary urea nitrogen level were detected. […]

xanthine oxidase (XOD) = assay: Serum xanthine oxidase activity in hyperuricemia model rats (enzymatic colorimetric method)
Protocol: (§1) SD rats were stratified by weight using random number table method, and each layer was divided into a normal group (10 rats), a fructose modeling group (50 rats) and a purine modeling group (24 rats) using random number table method. Tap water was administered to the normal group; a 10% (w/v) fructose solution was administered to the fructose modeling group for modeling; and for the purine modeling group, tap water was administered for drinking, 500 mg/kg of hypoxanthine + 100 mg/kg of nicotinic acid was administered by gastric perfusion according to body weight once a day, and the volume of perfusion was 10 ml/kg. The food and water consumption of rats were recorded daily, the body weights were weighed every 7 days, and blood was taken by shearing the tail tip on the next day of weighing. […] Table 1 Gastric perfusion dosages of rats in each group Every 7 days during the experiment, the body weights of the animals were weighed and recorded, blood was taken from the tail vein, and serum was separated by centrifugation. The uric acid (UA), urea nitrogen (BUN), creatinine (CRE), xanthine oxidase (XOD), adenosine deaminase (ADA) and guanine deaminase (GuDa) in serum were detected. […] In the presence of an electron acceptor and a developer, a purple red conjugate was produced, and the activity of xanthine oxidase could be calculated according to the amount of the latter produced. […]

guanine deaminase (GuDa) = assay: Serum guanine deaminase activity in hyperuricemia model rats (single enzyme reagent method)
Protocol: SD rats were stratified by weight using random number table method, and each layer was divided into a normal group (10 rats), a fructose modeling group (50 rats) and a purine modeling group (24 rats) using random number table method. Tap water was administered to the normal group; a 10% (w/v) fructose solution was administered to the fructose modeling group for modeling; and for the purine modeling group, tap water was administered for drinking, 500 mg/kg of hypoxanthine + 100 mg/kg of nicotinic acid was administered by gastric perfusion according to body weight once a day, and the volume of perfusion was 10 ml/kg. The food and water consumption of rats were recorded daily, the body weights were weighed every 7 days, and blood was taken by shearing the tail tip on the next day of weighing. […] Among them, 0.5% CMC-Na was administered to the normal group and the model group by gastric perfusion, and respective drugs dissolved in 0.5% CMC-Na were administered to the other administration groups by gastric perfusion. The perfusion was performed once every morning. […] Table 1 Gastric perfusion dosages of rats in each group Every 7 days during the experiment, the body weights of the animals were weighed and recorded, blood was taken from the tail vein, and serum was separated by centrifugation. The uric acid (UA), urea nitrogen (BUN), creatinine (CRE), xanthine oxidase (XOD), adenosine deaminase (ADA) and guanine deaminase (GuDa) in serum were detected. On day 35 of the experiment, the 24-hour urine of the rats was collected, the urine volume was measured, the pH value was determined, and the urinary uric acid level, urinary creatinine level, and urinary urea nitrogen level were detected. […] In the presence of an electron acceptor and a developer, a purple red conjugate was produced, and the activity of xanthine oxidase could be calculated according to the amount of the latter produced. […] Therefore, the activity of serum adenosine deaminase could be calculated. […]

[2] = tested on: adenosine deaminase (ADA); assay: Serum adenosine deaminase activity in hyperuricemia model rats (enzymatic colorimetric method)
Protocol: as §1

hyperuricemia model [3] = assay: 24-hour urine indices on day 35 in hyperuricemia model rats (volume, pH, uric acid, creatinine, urea nitrogen, clearances); parameters: Uric acid clearance / Creatinine clearance: unit not given here
Protocol: (§2) SD rats were stratified by weight using random number table method, and each layer was divided into a normal group (10 rats), a fructose modeling group (50 rats) and a purine modeling group (24 rats) using random number table method. Tap water was administered to the normal group; a 10% (w/v) fructose solution was administered to the fructose modeling group for modeling; and for the purine modeling group, tap water was administered for drinking, 500 mg/kg of hypoxanthine + 100 mg/kg of nicotinic acid was administered by gastric perfusion according to body weight once a day, and the volume of perfusion was 10 ml/kg. The food and water consumption of rats were recorded daily, the body weights were weighed every 7 days, and blood was taken by shearing the tail tip on the next day of weighing. […] Among them, 0.5% CMC-Na was administered to the normal group and the model group by gastric perfusion, and respective drugs dissolved in 0.5% CMC-Na were administered to the other administration groups by gastric perfusion. The perfusion was performed once every morning. […] During the experiment, since there was no significant difference in blood uric acid level between the purine modeling group and the normal group from beginning to end, the modeling of the hyperuricemia model in rats was not successful, therefore, the rats were not further grouped. Table 1 Gastric perfusion dosages of rats in each group Every 7 days during the experiment, the body weights of the animals were weighed and recorded, blood was taken from the tail vein, and serum was separated by centrifugation. The uric acid (UA), urea nitrogen (BUN), creatinine (CRE), xanthine oxidase (XOD), adenosine deaminase (ADA) and guanine deaminase (GuDa) in serum were detected. On day 35 of the experiment, the 24-hour urine of the rats was collected, the urine volume was measured, the pH value was determined, and the urinary uric acid level, urinary creatinine level, and urinary urea nitrogen level were detected. After the experiment was terminated, the rats were sacrificed, and the right kidneys were taken and weighed. The specific determination method of each index was as follows. • ① Detecting serum uric acid and urinary uric acid by uricase colorimetric method: uric acid was catalyzed by uricase to produce allantoin and hydrogen peroxide (H2O2); […] A serum or urine sample was taken. […] Jaffe reaction occurred between the creatinine in the supernatant of serum from which protein was removed or the creatinine in clear urine and picric acid to produce an orange adduct. A serum or urine sample was taken. […] A serum or urine sample was taken. […] In the presence of an electron acceptor and a developer, a purple red conjugate was produced, and the activity of xanthine oxidase could be calculated according to the amount of the latter produced. A serum sample was taken. According to the operating instruction of Xanthine Oxidase Assay Kit, under the conditions of a cuvette the light path of 1 cm and a wavelength of 530 nm, double distilled water was used for zero calibration; the absorbance was determined by a UV spectrophotometer, and the activity of xanthine oxidase was obtained. • ⑤ Detecting adenosine deaminase (ADA) by enzymatic colorimetric method: adenine riboside was catalyzed by adenosine deaminase to hydrolyze and produce hypoxanthine riboside and ammonia, and the produced ammonia was developed. Therefore, the activity of serum adenosine deaminase could be calculated. A serum sample was taken. […]

hyperuricemia model [4] = assay: Serum urea nitrogen (urease method) and serum creatinine (picric acid method) in hyperuricemia model rats
Protocol: as §2

[5] = Body weight of rats during the 35-day hyperuricemia experiment
Protocol: SD rats were stratified by weight using random number table method, and each layer was divided into a normal group (10 rats), a fructose modeling group (50 rats) and a purine modeling group (24 rats) using random number table method. Tap water was administered to the normal group; a 10% (w/v) fructose solution was administered to the fructose modeling group for modeling; and for the purine modeling group, tap water was administered for drinking, 500 mg/kg of hypoxanthine + 100 mg/kg of nicotinic acid was administered by gastric perfusion according to body weight once a day, and the volume of perfusion was 10 ml/kg. The food and water consumption of rats were recorded daily, the body weights were weighed every 7 days, and blood was taken by shearing the tail tip on the next day of weighing.
Among them, 0.5% CMC-Na was administered to the normal group and the model group by gastric perfusion, and respective drugs dissolved in 0.5% CMC-Na were administered to the other administration groups by gastric perfusion. The perfusion was performed once every morning. The dosages of administration were as follows: the dosage of benzbromarone was 20 mg/kg, the large-, medium- and small-dosages of the extract of the present disclosure were 1.9 g/kg, 0.95 g/kg, and 0.475 g/kg, respectively, the volume of administration was 15 ml/kg, and the experiment lasted for 35 days in total. During the experiment, since there was no significant difference in blood uric acid level between the purine modeling group and the normal group from beginning to end, the modeling of the hyperuricemia model in rats was not successful, therefore, the rats were not further grouped. Table 1 Gastric perfusion dosages of rats in each group
Every 7 days during the experiment, the body weights of the animals were weighed and recorded, blood was taken from the tail vein, and serum was separated by centrifugation. The uric acid (UA), urea nitrogen (BUN), creatinine (CRE), xanthine oxidase (XOD), adenosine deaminase (ADA) and guanine deaminase (GuDa) in serum were detected. On day 35 of the experiment, the 24-hour urine of the rats was collected, the urine volume was measured, the pH value was determined, and the urinary uric acid level, urinary creatinine level, and urinary urea nitrogen level were detected. After the experiment was terminated, the rats were sacrificed, and the right kidneys were taken and weighed.

hyperuricemia model [6] = assay: Uric acid reducing effect: serum uric acid in high-fructose hyperuricemia model rats (uricase colorimetric method)
Protocol: as §2

For CCc1oc2ccccc2c1C(=O)c1cc(Br)c(O)c(Br)c1 [Benzbromarone, benzbromarone], the “right kidney Weight” value [1] was 1.43 ± 0.10^ΔΔ g, the “serum xanthine oxidase level” value (xanthine oxidase (XOD); Day 21) was 28.66 ± 3.75 U/L and the “serum xanthine oxidase level” value (xanthine oxidase (XOD); Day 35) was 20.61 ± 2.67 U/L. The “serum guanine deaminase activity” value (guanine deaminase (GuDa); Day 21) was 29.46 ± 3.57^Δ U/L, the “serum guanine deaminase activity” value (guanine deaminase (GuDa); Day 21, listed as benzbromarone) was “significant decrease” and the “serum guanine deaminase activity” value (guanine deaminase (GuDa); Day 35) was 11.46 ± 4.83 U/L. For the same compound, the “serum adenosine deaminase level” value ([2]; Day 21) was 54.22 ± 8.72 U/ml, the “serum adenosine deaminase level” value ([2]; Day 35) was 97.69 ± 15.32 U/ml and the Creatinine clearance (hyperuricemia model [3]) was 1.67 ± 1.18. The Uric acid clearance (hyperuricemia model [3]) was 0.155 ± 0.047, the “24-hour Urine volume” value (hyperuricemia model [3]; Day 35) was 117.80 ± 31.17 mL and the “urinary pH” value (hyperuricemia model [3]; Day 35) was 6.70 ± 0.71. The “UBUN (concentration of urinary urea nitrogen)” value (hyperuricemia model [3]; day 35) was 156.36 ± 133.40 mmol/L, the “UCR (concentration of urinary creatinine)” value (hyperuricemia model [3]; day 35) was 1256.25 ± 332.40 µmol/L and the “UUA (concentration of urinary uric acid)” value (hyperuricemia model [3]; day 35) was 173.57 ± 56.65 µmol/L. The Serum creatinine (hyperuricemia model [4]; Day 21) was 99.21 ± 17.50 µmol/L, the Serum urea nitrogen (hyperuricemia model [4]; Day 21) was 5.73 ± 1.02 mM and the Serum creatinine (hyperuricemia model [4]; Day 35) was 74.54±25.76^Δ µmol/L. The Serum urea nitrogen (hyperuricemia model [4]; Day 35) was 6.27 ± 1.62 mM, the Serum creatinine (hyperuricemia model [4]; Day 35, listed as benzbromarone) was “significant decrease” and the body weight ([5]; Day 0, modeling period) was 243.40 ± 7.63 g. For the same compound, the body weight ([5]; Day 7, modeling period) was 325.46 ± 15.10 g, the body weight ([5]; Day 14, modeling period) was 365.30 ± 20.19 g and the body weight ([5]; Day 21, administration period) was 391.83 ± 19.39 g. For the same compound, the body weight ([5]; Day 28, administration period) was 425.86 ± 22.33 g, the body weight ([5]; Day 35, administration period) was 433.88 ± 27.07 g and the “serum uric acid level” value (hyperuricemia model [6]; Day 0, modeling period) was 75.83 ± 38.77 µmol/L. For the same compound, the “serum uric acid level” value (hyperuricemia model [6]; Day 7, modeling period) was 94.75 ± 25.26 µmol/L, the “serum uric acid level” value (hyperuricemia model [6]; Day 14, modeling period) was 65.57±27.48^Δ µmol/L and the “serum uric acid level” value (hyperuricemia model [6]; Day 14, modeling period, listed as benzbromarone) was “significant decrease”. For the same compound, the “serum uric acid level” value (hyperuricemia model [6]; Day 21, administration period) was 68.45 ± 22.20 µmol/L, the “serum uric acid level” value (hyperuricemia model [6]; Day 28, administration period) was 79.65±24.68^Δ µmol/L and the “serum uric acid level” value (hyperuricemia model [6]; Day 28, administration period, listed as benzbromarone) was “significant decrease”. For the same compound, the “serum uric acid level” value (hyperuricemia model [6]; Day 35, administration period) was 85.66±18.37^Δ µmol/L and the “serum uric acid level” value (hyperuricemia model [6]; Day 35, administration period, listed as benzbromarone) was “significant decrease”.

— patent EP3456336B1, “A CELERY SEED AND SOPHORA FLOWER BUD EXTRACT AND MEDICAL USE THEREOF” (Beijing Tianheng Junwei Pharmaceutical Tech Co., Ltd, priority 2016, dated 2017)
